Measurements as given in publication PMC7694092, “Antibacterial Cyclic Tripeptides from Antarctica-Sponge-Derived Fungus Aspergillus insulicola HDN151418” (Marine Drugs, 2020).
≈ marks a conversion by molar mass, not a printed value. Where two headings read alike, the source gives them in different places.

How the values were obtained:
Bacillus cereus = assay: microbe, parasite or virus in culture
Method: (§1) The antimicrobial activities of 1–6 against Bacillus cereus, Proteus species, Mycobacterium phlei, Bacillus subtilis, Vibrio parahemolyticus, Edwardsiella tarda, MRCNS, and MRSA were evaluated as previously reported by using the agar dilution method. […] All strains were donated by the Qingdao municipal hospital.

Bacillus subtilis = assay: microbe, parasite or virus in culture
Method: as §1

Edwardsiella tarda = assay: microbe, parasite or virus in culture
Method: as §1

Mycobacterium phlei = assay: microbe, parasite or virus in culture
Method: as §1

Proteus species = assay: organism not typed
Method: as §1

MRCNS = test system: MRCNS
Method: as §1

MRSA = test system: MRSA
Method: as §1

Vibrio parahemolyticus = assay: Antimicrobial activity (MIC), agar dilution method; format: cell-based; settings: performed in triplicates
Method: as §1

in vitro [1] = format: cell-based; settings: human; K562 cells; read-out: cytotoxic activity IC50
Excerpt: (§2) HeLa (human epithelial carcinoma cell line), HCT-116 (human colon cancer cell line), MCF-7 (human breast adenocarcinoma cell line), A549 (human lung adenocarcinoma cell line), SH-SY5Y (human neuroblastoma cell line), MDA-MB-231 (human breast cancer cell line), HO8910 (human ovarian carcinoma cell line), and MGC-803 (human stomach carcinoma cell line) were ordered from Shanghai Institute of Biochemistry and Cell Biology, Chinese Academy of Sciences (Shanghai, China). K562 (human leukaemia cell line), BEL-7402 (human hepatic carcinoma cell line), L-02 (human normal hepatic cell line), GES-1 (human gastric epithelial cell line), U87 (human primary glioblastoma cell line), ASPC-1 (human pancreatic cancer cell line), PC-3 (human prostate carcinoma cell line), and NCI-H446 (human small cell lung cancer cell line) were ordered from the American Type Culture Collection (ATCC, Gaithersburg, MD, USA).

in vitro [2] = format: cell-based; settings: human; BEL-7402 cells; read-out: cytotoxic activity IC50
Excerpt: as §2

in vitro [3] = format: cell-based; settings: human; HCT-116 cells; read-out: cytotoxic activity IC50
Excerpt: as §2

in vitro [4] = format: cell-based; settings: human; A549 cells; read-out: cytotoxic activity IC50
Excerpt: as §2

in vitro [5] = format: cell-based; settings: human; Hela cells; read-out: cytotoxic activity IC50
Excerpt: as §2

in vitro [6] = format: cell-based; settings: human; L-02 cells; read-out: cytotoxic activity IC50
Excerpt: as §2

in vitro [7] = format: cell-based; settings: human; U87 cells; read-out: cytotoxic activity IC50
in vitro [8] = format: cell-based; settings: human; ASPC-1 cells; read-out: cytotoxic activity IC50
in vitro [9] = format: cell-based; settings: human; SH-SY5Y cells; read-out: cytotoxic activity IC50
in vitro [10] = format: cell-based; settings: human; PC-3 cells; read-out: cytotoxic activity IC50
in vitro [11] = format: cell-based; settings: human; MGC-803 cells; read-out: cytotoxic activity IC50
Excerpt: as §2

in vitro [12] = format: cell-based; settings: human; HO8910 cells; read-out: cytotoxic activity IC50
Excerpt: as §2

in vitro [13] = format: cell-based; settings: human; MCF-7 cells; read-out: cytotoxic activity IC50
Excerpt: as §2

in vitro [14] = format: cell-based; settings: human; MDA-MB-231 cells; read-out: cytotoxic activity IC50
Excerpt: as §2

in vitro [15] = format: cell-based; settings: human; NCI-H446 cells; read-out: cytotoxic activity IC50
Excerpt: as §2

in vitro [16] = settings: human, GES-1 cells (gastric epithelial cell line)
[17] = dissolved in solvent mixture MeOH-H2O and exposed to air for two weeks; LC-MS
Excerpt: It is well-known that some artificial compounds are formed from natural compounds due to oxidation when exposed to air.

SMILES | MIC, B. cereus (Bacillus cereus) [µM] | MIC, B. subtilis (Bacillus subtilis) [µM] | MIC, E. tarda (Edwardsiella tarda) [µM] | MIC, M. phlei (Mycobacterium phlei) [µM] | MIC, P. species (Proteus species) [µM] | MIC, MRCNS (MRCNS) [µM] | MIC, MRSA (MRSA) [µM] | MIC, V. parahemolyticus (Vibrio parahemolyticus) [µM] | IC50 (in vitro [1]) [µM] | IC50 (in vitro [2]) [µM] | IC50 (in vitro [3]) [µM] | IC50 (in vitro [4]) [µM] | IC50 (in vitro [5]) [µM] | IC50 (in vitro [6]) [µM] | IC50 (in vitro [7]) [µM] | IC50 (in vitro [8]) [µM] | IC50 (in vitro [9]) [µM] | IC50 (in vitro [10]) [µM] | IC50 (in vitro [11]) [µM] | IC50 (in vitro [12]) [µM] | other results
CO[C@H](C)[C@@H](/C=C/C=C/C(=O)N(C)[C@H]1CCCN(C)C(=O)[C@H](C)N(C)C(=O)[C@H](C(C)C)N(C)C1=O)OC [Compound 3] | >50.0 | >50.0 | 25.0 (≈ 13.1 µg/mL) | >50.0 | >50.0 | >50.0 | >50.0 | 25.0 (≈ 13.1 µg/mL) | > 30 | > 30 | > 30 | > 30 | > 30 | > 30 | > 30 | > 30 | > 30 | > 30 | > 30 | > 30 | IC50 (in vitro [13]): > 30 µM; IC50 (in vitro [14]): > 30 µM; IC50 (in vitro [15]): > 30 µM; IC50 (in vitro [16]): > 30 µM
C/C=C/C=C/C=C/C(=O)N[C@H]1CCCNC(=O)[C@H](C)N(C)C(=O)[C@H](C(C)C)N(C)C1=O [Compound 6, sclerotiotide B] | >50.0 | >50.0 | >50.0 | >50.0 | >50.0 | >50.0 | >50.0 | >50.0 | > 30 | > 30 | > 30 | > 30 | > 30 | > 30 | > 30 | > 30 | > 30 | > 30 | > 30 | > 30 | IC50 (in vitro [13]): > 30 µM; IC50 (in vitro [14]): > 30 µM; IC50 (in vitro [15]): > 30 µM; chemical stability (products formed) [17]: compounds 4 and 5 were also detected from the product; IC50 (in vitro [16]): > 30 µM
CC(C)[C@H]1C(=O)N(C)[C@@H](C)C(=O)NCCC[C@H](NC(=O)/C=C/C=C/C=O)C(=O)N1C [Compound 5, sclerotiotide F] | 25.0 (≈ 10.5 µg/mL) | >50.0 | 25.0 (≈ 10.5 µg/mL) | >50.0 | 25.0 (≈ 10.5 µg/mL) | >50.0 | >50.0 | 25.0 (≈ 10.5 µg/mL) | > 30 | > 30 | > 30 | > 30 | > 30 | > 30 | > 30 | > 30 | > 30 | > 30 | > 30 | > 30 | IC50 (in vitro [13]): > 30 µM; IC50 (in vitro [14]): > 30 µM; IC50 (in vitro [15]): > 30 µM; IC50 (in vitro [16]): > 30 µM
COC(=O)/C=C/C=C/C(=O)N[C@H]1CCCNC(=O)[C@H](C)N(C)C(=O)[C@H](C(C)C)N(C)C1=O [Compound 2, (2′E,4′E)-cyclo-[(NMe-L-Ala)-(NMe-L-Val)-(Nα-6-methoxy-6-oxohexa-2,4-dienoyl-L-Orn)]] | 6.25 (≈ 2.82 µg/mL) | 12.5 (≈ 5.63 µg/mL) | 1.56 (≈ 0.703 µg/mL) | 12.5 (≈ 5.63 µg/mL) | 6.25 (≈ 2.82 µg/mL) | 25.0 (≈ 11.3 µg/mL) | 25.0 (≈ 11.3 µg/mL) | 6.25 (≈ 2.82 µg/mL) | > 30 | > 30 | > 30 | > 30 | > 30 | > 30 | > 30 | > 30 | > 30 | > 30 | > 30 | > 30 | IC50 (in vitro [13]): > 30 µM; IC50 (in vitro [14]): > 30 µM; IC50 (in vitro [15]): > 30 µM; IC50 (in vitro [16]): > 30 µM
O=C(O)c1cn(C2CC2)c2cc(N3CCNCC3)c(F)cc2c1=O [CIP, Ciprofloxacin, reference compound] |  |  |  |  |  |  |  |  |  |  |  |  |  |  |  |  |  |  |  |  | MIC (Bacillus cereus; Bacillus cereus, read-out: MIC, B. cereus): 0.78 µM (≈ 0.258 µg/mL); MIC (Bacillus subtilis; Bacillus subtilis, read-out: MIC, B. subtilis): 0.195 µM (≈ 0.0646 µg/mL); MIC (Edwardsiella tarda; Edwardsiella tarda, read-out: MIC, E. tarda): 0.0125 µM (≈ 0.00414 µg/mL); MIC (Mycobacterium phlei; Mycolicibacterium phlei, read-out: MIC, M. phlei): 0.78 µM (≈ 0.258 µg/mL); MIC (Proteus species; read-out: MIC, P. species): 0.195 µM (≈ 0.0646 µg/mL)
CC(C)[C@H]1C(=O)N(C)[C@@H](C)C(=O)NCCC[C@H](NC(=O)/C=C/C=C/C(=O)O)C(=O)N1C [Compound 1] | 3.13 (≈ 1.37 µg/mL) | 6.25 (≈ 2.73 µg/mL) | 1.56 (≈ 0.681 µg/mL) | 3.13 (≈ 1.37 µg/mL) | 3.13 (≈ 1.37 µg/mL) | 12.5 (≈ 5.46 µg/mL) | 25.0 (≈ 10.9 µg/mL) | 3.13 (≈ 1.37 µg/mL) | > 30 | > 30 | > 30 | > 30 | > 30 | > 30 | > 30 | > 30 | > 30 | > 30 | > 30 | > 30 | IC50 (in vitro [13]): > 30 µM; IC50 (in vitro [14]): > 30 µM; IC50 (in vitro [15]): > 30 µM; IC50 (in vitro [16]): > 30 µM
CO[C@H](/C=C/C=C/C(=O)N[C@H]1CCCNC(=O)[C@H](C)N(C)C(=O)[C@H](C(C)C)N(C)C1=O)[C@@H](C)O [Compound 4, (2′E,4′E)-cyclo-[(NMe-L-Ala)-(NMe-L-Val)-(Nα-(6R,7R)-7-hydroxy-6-methoxyocta-2,4-dienoyl-L-Orn)]] | 25.0 (≈ 12 µg/mL) | >50.0 | 25.0 (≈ 12 µg/mL) | >50.0 | 25.0 (≈ 12 µg/mL) | >50.0 | >50.0 | 25.0 (≈ 12 µg/mL) | > 30 | > 30 | > 30 | > 30 | > 30 | > 30 | > 30 | > 30 | > 30 | > 30 | > 30 | > 30 | IC50 (in vitro [13]): > 30 µM; IC50 (in vitro [14]): > 30 µM; IC50 (in vitro [15]): > 30 µM; IC50 (in vitro [16]): > 30 µM
